System: pressor response to exogenous angiotensin II
Assay: Inhibition of Pressor Response to Angiotensin II in Conscious Rats
Assay type: in vivo
Conditions: Rattus norvegicus, mean arterial pressure, 250 mg/kg angiotensin II i.v. as printed, compounds given intravenously or orally at 3 to 300 mg/kg (route not given), read-out: IC50 (dose of compound needed to produce 50% inhibition of the control pressor response to angiotensin II)
Procedure: Angiotensin II antagonist activity of the compounds of Formula (I) is assessed by in vitro and in vivo methods. In vitro antagonist activity is determined by the ability of the compounds to compete with ^125 I-angiotensin II for binding to vascular angiotensin II receptors and by their ability to antagonize the contractile response to angiotensin II in the isolated rabbit aorta. In vivo activity is evaluated by the efficacy of the compounds to inhibit- the pressor response to exogenous angiotensin II in conscious rats and to lower blood pressure in a rat model of renin dependent hypertension.
Rats are prepared with indwelling femoral arterial and venous catheters and a stomach tube (Gellai et al., Kidney Int. 15:419, 1979). Two to three days following surgery the rats are placed in a restrainer and blood pressure is continuously monitored from the arterial catheter with a pressure transducer and recorded on a polygraph. The change in mean arterial pressure in response to intravenous injections of […] angiotensin II is compared at various time points prior to and following the administration of the compounds intravenously or orally at doses of 3 to 300 mg/kg. The dose of compound needed to produce 50% inhibition of the control response to angiotensin II (IC50) is used to estimate the potency of the compounds.

`CCCCc1ncc(CC(=O)N[C@@H](Cc2ccccc2)C(=O)O)n1Cc1ccccc1Cl` [Example 14, N-[{2-n-Butyl-1-(2-chlorophenyl)methyl-1H-imidazol-5-yl}methylcarbonyl]-L-phenylalanine] showed an ED50 of 16 mg/kg.
